Test in all cases: whole-cell patch clamp
Holding throughout (assay type): cell-based
Holding throughout (details): agonist; pH 7.4

Assay [1] relates to heteromeric α2β GlyR.
The subject of assay [2] is homomeric α2 GlyR.
Assay [3] concerns heteromeric α3β GlyR.
The subject of assay [4] is homomeric α3 GlyR.

The values below come from article doi:10.1101/454710v1 (biorxiv, 2018).

The structures appear in SMILES notation.

One may read the EC50 as the concentration at which the effect is half-maximal. A lower EC50 goes with a more potent agent. For the compound `NCC(=O)O` [glycine], the EC50 in assay [1] worked out at 91 µM; in assay [2], 99 µM; in assay [3], 395 µM; in assay [4] it was 166 µM.
